This is an account of results in patent publication US6610697B1, “Substituted 2-aryl-3-(heteroaryl)-imidazo[1,2-a]pyrimidines, and related pharmaceutical compositions and methods” (Ortho-McNeil Pharmaceutical, Inc., priority 1999, dated 2003).

SMILES strings stand for the structures.

By IC50 is commonly meant the point on the concentration scale where inhibition reaches its midpoint. As usually defined, the inhibition in vivo is the change of the read-out against control, counted positive when it falls. High values mean a strong effect, low ones a weak effect.

The subject of assay [1] is TNF-α. Nature of the assay: PBMC whole cell assay (LPS/PBMC, TNF-α ELISA). In kind it is cell-based. As to conditions: human PBMC, LPS stimulation overnight. On the procedure: Representative compounds of the present invention were tested in an in vitro whole cell assay using peripheral blood mononuclear cells (“PBMC's”) which were obtained from human blood as follows. Freshly obtained venous blood was anticoagulated with heparin, diluted with an equal volume of phosphate buffered saline (“PBS”) and placed in a sterile tube or other container. Aliquots (30 mL) of this mixture were transferred to centrifuge tubes which were underlaid with Ficoll-Hypaque (15 mL). The prepared tubes were centrifuged at 400×g without braking for 30 min at room temperature. Approximately ½ to ⅔ of the platelet layer above the mononuclear cell band was removed with a pipette. The majority of the mononuclear cell layer was carefully removed using a pipette and these PBMC's were diluted with PBS and spun at 600×g for 15 min. The resulting PBMC's were washed with another portion of PBS and spun at 400×g for 10 min at room temperature. The recovered pellets were diluted in low endotoxin RPMI/1% FCS culture medium and gave a cell concentration of 0.5-2.0×10^6 PMBC/mL. A small volume of the suspension was removed for counting on a hemocytometer and the remaining preparation was centrifuged at 200×g for 15 min at room temperature. The recovered pelleted PMBC's were re-suspended in RPMI/1% FCS to a concentration of 1.67×10^6/mL.
To run the assay, the PBMC suspension (180 μL) was transferred to duplicate wells of a 96-well flat-bottom microtiter plate and incubated for 1 h at 37° C. A solution of test compound (10 μL, prepared at 20×the desired final concentration) was added to each well and the plate was incubated for 1 h at 37° C. A solution (10 μL) of LPS in RPMI/1% FCS (200 ng/mL) was added and the wells were incubated overnight at 37° C. The supernate (100 μL) was removed from each well and diluted with RPMI/1% FCS (400 μL). The samples were analyzed for TNF-α using a commercial ELISA kit (Genzyme).

For assay [2], the system named is LPS-induced TNF-α production. Nature of the assay: In vivo rodent assay, LPS-induced TNF-α production. As to conditions: Mus musculus; BALB/cJ female mice, oral 10 mg/kg, LPS 1 mg/kg i.p. 30 min after dosing, serum TNF-α 1 h later. On the procedure:
Mice (BALB/cJ females, Jackson Laboratories) were fasted for 30 min. prior to oral dosing with 5-10 mL/kg of a test compound at 5-50 mg/kg. Thirty minutes after dosing, the animals were injected intraperitoneally with LPS at 1 mg/kg and returned to their cages for 1 h. Animals were anesthetized by CO2, exsanguinated by cardiac puncture and whole blood collected (0.1-0.7 mL). The blood was allowed to clot and serum was transferred to a centrifuge tube. This sample was centrifuged, and serum was collected, aliquoted, and frozen at −80° C. Samples were tested by commercial ELISA's for TNF-α (Endogen for mouse TNF-α). The % inhibition of the test compounds was calculated by the following formula: % inhibition=[1-(sample-BKG)/(CTRL-BKG)]×100.

`CSc1nccc(-c2c(-c3cccc(F)c3)nc3nc(N)ccn23)n1` [Compound 12, 2-(3-Fluorophenyl)-3-[2-(methylthio)-4-pyrimidinyl]imidazo[1,2-a]pyrimidin-7-amine] registered an IC50 in assay [1] of 10 nM. In assay [2], this compound came in with an inhibition in vivo at 10 mg/kg of 51%.
On the same counts, the results for `Nc1ccn2c(-c3ccncc3)c(-c3ccc(F)c(Cl)c3)nc2n1` [Compound 4, 2-(3-chloro-4-fluorophenyl)-3-(4-pyridinyl)-imidazo[1,2-a]pyrimidin-7-amine] are 21 nM and 100%.
Compound `COc1nccc(-c2c(-c3ccccc3)nc3nc(N)ccn23)n1` [Compound 23, 3-(2-Methoxy-4-pyrimidinyl)-2-phenylimidazo[1,2-a]pyrimidin-7-amine] gave an IC50 in assay [1] of 90 nM. The compound also gave an inhibition in vivo at 10 mg/kg in assay [2] of 87%.
In assay [1], `COc1ccc(CNc2nccc(-c3c(-c4ccccc4)nc4nc(N)ccn34)n2)cc1` [Compound 20, 3-[[[(4-Methoxyphenyl)methyl]amino]-4-pyrimidinyl]-2-phenylimidazo[1,2-a]pyrimidin-7-amine] showed an IC50 of 14 nM.
In assay [1], `CSc1nccc(-c2c(-c3cccc(C(F)(F)F)c3)nc3nc(N)ccn23)n1` [Compound 11, 3-[2-(Methylthio)-4-pyrimidinyl]-2-[3-(trifluoromethyl)phenyl]imidazo[1,2-a]pyrimidin-7-amine] came in with an IC50 of 27 nM. In assay [2], this compound showed an inhibition in vivo at 10 mg/kg of 38%.
The like results for `CSc1nccc(-c2c(-c3ccc(F)cc3)nc3nc(N)ccn23)n1` [Compound 10, 2-(4-Fluorophenyl)-3-[2-(methylthio)-4-pyrimidinyl]imidazo[1,2-a]pyrimidin-7-amine] were, in that order, 37 nM and 68%.
The like results for `Nc1ccn2c(-c3ccnc(NCc4ccccc4)c3)c(-c3ccc(F)cc3)nc2n1` [Compound 6, 2-(4-fluorophenyl)-3-[2-[(phenylmethyl)amino]4-pyridinyl]-imidazo[1,2-a]pyrimidin-7-amine] were, in that order, 6 nM and 42%.
The like results for `Nc1ccn2c(-c3ccncn3)c(-c3ccccc3)nc2n1` [Compound 16, 2-Phenyl-3-(4-pyrimidinyl)imidazo[1,2-a]pyrimidin-7-amine] were, in that order, 304 nM and 73%.
Compound `C[C@H](Nc1nccc(-c2c(-c3cccc(C(F)(F)F)c3)nc3nc(N)ccn23)n1)c1ccccc1` [Compound 9, 3-[2-[[(1S)-1-Phenylethyl]amino]4-pyrimidinyl]-2-[3-(trifluoromethyl)phenyl]imidazo[1,2-a]pyrimidin-7-amine] gave an IC50 in assay [1] of 0.5 nM. Also, in assay [2], the inhibition in vivo at 10 mg/kg stood at 97%.
The like results for `Nc1ccn2c(-c3ccncn3)c(-c3cccc(C(F)(F)F)c3)nc2n1` [Compound 13, 3-(4-Pyrimidinyl)-2-[3-(trifluoromethyl)phenyl]imidazo[1,2-a]pyrimidin-7-amine] were, in that order, 278 nM and 85%.
On the same counts, the results for `Nc1ccn2c(-c3ccncn3)c(-c3ccc(F)cc3)nc2n1` [Compound 24, 2-(4-Fluorophenyl)-3-(4-pyrimidinyl)imidazo[1,2-a]pyrimidin-7-amine] are 199 nM and 91%.
In assay [1], `CS(=O)(=O)c1nccc(-c2c(-c3ccccc3)nc3nc(N)ccn23)n1` [Compound 17, 3-[2-(Methylsulfonyl)-4-pyrimidinyl]-2-phenylimidazo [1,2-a]pyrimidin-7-amine] registered an IC50 of 3410 nM.
Consider `Nc1ccn2c(-c3ccnc(NCc4ccccc4)c3)c(-c3cccc(C(F)(F)F)c3)nc2n1` [Compound 8, 3-[2-[(phenylmethyl)amino]4-pyridinyl]-2-[3-(trifluoromethyl)phenyl]-imidazo[1,2-a]pyrimidin-7-amine], for which half-maximal inhibition in assay [1] (IC50) was put at 4 nM. For the same compound, 10 mg/kg produced 19% inhibition in vivo in assay [2].
In the case of `Nc1ccn2c(-c3ccncc3)c(-c3ccc(F)cc3)nc2n1` [Compound 1, 2-(4-fluorophenyl)-3-(4-pyridinyl)-imidazo[1,2-a]pyrimidin-7-amine], the IC50 in assay [1] is 49 nM. This compound also showed an inhibition in vivo at 10 mg/kg in assay [2] of 100%.
The like results for `CS(=O)(=O)c1nccc(-c2c(-c3cccc(C(F)(F)F)c3)nc3nc(N)ccn23)n1` [Compound 18, 3-[2-(Methylsulfonyl)-4-pyrimidinyl]-2-[3-(trifluoromethyl)phenyl]imidazo[1,2-a]pyrimidin-7-amine] were, in that order, 520 nM and 10%.
`Nc1ccn2c(-c3ccncc3)c(-c3ccccc3)nc2n1` [Compound 5, 2-phenyl-3-(4-pyridinyl)-imidazo[1,2-a]pyrimidin-7-amine] yielded an IC50 in assay [1] of 55 nM. Testing at 10 mg/kg in assay [2] gave an inhibition in vivo of 100%.
The like results for `Nc1ccn2c(-c3ccncc3)c(-c3cccc(Cl)c3)nc2n1` [Compound 25, 2-(3-Chlorophenyl)-3-(4-pyridinyl)imidazo[1,2-a]pyrimidin-7-amine] were, in that order, 162 nM and 47%.
The like results for `C[C@H](Nc1nccc(-c2c(-c3ccc(F)cc3)nc3nc(N)ccn23)n1)C1CCCCC1` [Compound 22, 3-[2-[[(1S)-1-Cyclohexylethyl]amino]-4-pyrimidinyl]-2-(4-fluorophenyl)imidazo[1,2-a]pyrimidin-7-amine] were, in that order, 1 nM and 74%.
On the same counts, the results for `Nc1ccn2c(-c3ccncc3)c(-c3cccc(C(F)(F)F)c3)nc2n1` [Compound 7, 3-(4-pyridinyl)-2-[3-(trifluoromethyl)phenyl]-imidazo[1,2-a]pyrimidin-7-amine] are 35 nM and 99%.
`Nc1ccn2c(-c3ccnc4ccccc34)c(-c3ccc(F)cc3)nc2n1` [Compound 3, 2-(4-fluorophenyl)-3-(4-quinolinyl)-imidazo[1,2-a]pyrimidin-7-amine] registered an IC50 in assay [1] of 333 nM. In addition, at 10 mg/kg the inhibition in vivo in assay [2] was 26%.
On the same counts, the results for `Nc1ccn2c(-c3ccnc(N4CCCCC4)n3)c(-c3ccccc3)nc2n1` [Compound 14, 2-Phenyl-3-[2-(1-piperidinyl)-4-pyrimidinyl]imidazo[1,2-a]pyrimidin-7-amine] are 8 nM and 63%.
On the same counts, the results for `Nc1ccn2c(-c3ccncc3)c(-c3cccc(F)c3)nc2n1` [Compound 2, 2-(3-fluorophenyl)-3-(4-pyridinyl)-imidazo[1,2-a]pyrimidin-7-amine] are 55 nM and 100%.
On the same counts, the results for `CSc1nccc(-c2c(-c3ccccc3)nc3nc(N)ccn23)n1` [Compound 15, 3-[2-(Methylthio)-4-pyrimidinyl]-2-phenylimidazo[1,2-a]pyrimidin-7-amine] are 28 nM and 23%.
Take `C[C@H](Nc1nccc(-c2c(-c3ccccc3)nc3nc(N)ccn23)n1)c1ccccc1` [Compound 19, 2-Phenyl-3-[2-[[(1S)-1-phenylethyl]amino]4-pyrimidinyl]imidazo[1,2-a]pyrimidin-7-amine]: the IC50 in assay [1] amounted to 0.4 nM. Besides, the inhibition in vivo at 10 mg/kg in assay [2] came to 100%.
